Values of other authors, collected in patent publication US20060069075A1, “Methods for treating dry eye” (priority 2001, published 2006).

Tested on: human conjunctival epithelial cells
Conditions: background statement, no data given

Question: Which “secretion of mucin-1 (MUC-1)” value does the source give for CCCCC[C@H](O)/C=C/C=C\C/C=C\C/C=C\CCCC(=O)O [15-HETE] here?
Answer: increase the secretion of mucin-1 (MUC-1)
